# Experimental data: ChEMBL document CHEMBL3988442, “University of Dundee, Small-Polar-MMV Screening Library” (2021)
# Values joined by “and” are separate entries in the source; they are usually repeats but may differ in a detail not shown here. Equal values may be shown once.
# Key:
# Type in all cases: functional
# Histidine--tRNA ligase [1] = target: T1, Histidine--tRNA ligase (Trypanosoma cruzi (strain CL Brener), UniProt Q4DA54); test: Trypanosoma cruzi histidyl tRNA synthetase (Tc-HisRS)
# T1 sequence (Q4DA54 whole entry): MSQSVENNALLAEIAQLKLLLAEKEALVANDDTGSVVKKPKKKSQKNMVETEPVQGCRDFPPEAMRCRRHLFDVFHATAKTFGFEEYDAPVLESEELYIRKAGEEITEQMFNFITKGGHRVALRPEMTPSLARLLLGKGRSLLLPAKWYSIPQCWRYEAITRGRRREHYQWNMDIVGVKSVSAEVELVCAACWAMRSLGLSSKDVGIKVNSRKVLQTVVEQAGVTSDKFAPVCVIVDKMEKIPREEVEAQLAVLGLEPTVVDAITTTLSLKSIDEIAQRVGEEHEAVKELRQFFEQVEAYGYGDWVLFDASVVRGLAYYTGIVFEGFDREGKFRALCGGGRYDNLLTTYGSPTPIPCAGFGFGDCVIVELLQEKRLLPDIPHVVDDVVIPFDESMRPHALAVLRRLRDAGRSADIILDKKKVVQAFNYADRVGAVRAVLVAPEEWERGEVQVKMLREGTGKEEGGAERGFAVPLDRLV
# [2] = target: Protein translocase subunit SecA (Escherichia coli (strain K12), UniProt P10408); test: Assay to Identify E. coli SecA ATPase Inhibitors
# Chain of Protein translocase subunit SecA (P10408 whole entry): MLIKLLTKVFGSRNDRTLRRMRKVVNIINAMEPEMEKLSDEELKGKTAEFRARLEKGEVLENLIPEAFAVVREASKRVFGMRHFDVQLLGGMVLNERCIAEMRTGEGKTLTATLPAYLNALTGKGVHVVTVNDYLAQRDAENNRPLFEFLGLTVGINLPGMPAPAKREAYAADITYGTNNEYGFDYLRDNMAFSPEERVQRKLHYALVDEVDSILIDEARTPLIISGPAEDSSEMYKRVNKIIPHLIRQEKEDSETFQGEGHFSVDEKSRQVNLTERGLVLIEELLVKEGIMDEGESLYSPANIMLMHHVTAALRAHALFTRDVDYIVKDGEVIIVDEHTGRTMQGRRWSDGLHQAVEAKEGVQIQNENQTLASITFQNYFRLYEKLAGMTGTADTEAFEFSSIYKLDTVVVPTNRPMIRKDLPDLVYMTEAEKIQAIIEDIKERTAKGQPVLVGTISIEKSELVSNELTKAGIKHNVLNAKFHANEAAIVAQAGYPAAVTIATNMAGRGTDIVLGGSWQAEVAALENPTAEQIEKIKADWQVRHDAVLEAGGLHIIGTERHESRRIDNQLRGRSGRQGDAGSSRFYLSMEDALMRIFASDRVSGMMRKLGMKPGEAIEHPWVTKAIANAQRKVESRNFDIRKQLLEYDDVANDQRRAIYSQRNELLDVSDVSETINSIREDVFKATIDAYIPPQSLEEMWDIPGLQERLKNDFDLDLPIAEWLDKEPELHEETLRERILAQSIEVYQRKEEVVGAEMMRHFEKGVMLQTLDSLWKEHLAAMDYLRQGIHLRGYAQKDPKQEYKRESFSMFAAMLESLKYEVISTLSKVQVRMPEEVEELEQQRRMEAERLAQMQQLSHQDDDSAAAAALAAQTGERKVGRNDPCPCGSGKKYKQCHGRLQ
# Lysine--tRNA ligase = Lysine--tRNA ligase (Plasmodium falciparum (isolate 3D7), UniProt Q8IDJ8); test: Pf-KRS-1 (Lysyl-RNA Synthetase-1, KRS-1, cytosolic KRS) from Plasmodium falciparum. Inhibitor assay, 384 well plate, luminescence read.
# Chain of Lysine--tRNA ligase (Q8IDJ8 whole entry): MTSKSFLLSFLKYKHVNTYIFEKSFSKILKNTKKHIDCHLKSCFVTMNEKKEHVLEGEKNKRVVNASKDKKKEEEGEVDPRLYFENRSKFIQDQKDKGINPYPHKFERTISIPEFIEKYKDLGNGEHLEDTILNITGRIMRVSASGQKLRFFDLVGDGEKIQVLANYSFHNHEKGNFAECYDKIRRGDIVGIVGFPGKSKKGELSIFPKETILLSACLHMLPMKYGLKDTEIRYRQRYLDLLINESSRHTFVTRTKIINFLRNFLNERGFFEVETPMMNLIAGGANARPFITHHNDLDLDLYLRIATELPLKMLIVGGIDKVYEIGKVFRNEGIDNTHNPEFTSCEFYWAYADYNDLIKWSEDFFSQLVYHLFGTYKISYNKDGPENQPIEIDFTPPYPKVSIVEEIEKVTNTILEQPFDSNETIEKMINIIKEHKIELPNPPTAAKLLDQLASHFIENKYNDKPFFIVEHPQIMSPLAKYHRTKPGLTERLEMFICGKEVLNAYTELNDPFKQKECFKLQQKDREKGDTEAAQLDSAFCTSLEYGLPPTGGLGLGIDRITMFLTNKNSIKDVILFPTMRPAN
# Histidine--tRNA ligase [3] = target: T2, Histidine--tRNA ligase (Leishmania infantum, UniProt A4I591); test: Leishmania infantum Histidine tRNA synthetase (LdHisRS)
# T2 sequence (A4I591 whole entry): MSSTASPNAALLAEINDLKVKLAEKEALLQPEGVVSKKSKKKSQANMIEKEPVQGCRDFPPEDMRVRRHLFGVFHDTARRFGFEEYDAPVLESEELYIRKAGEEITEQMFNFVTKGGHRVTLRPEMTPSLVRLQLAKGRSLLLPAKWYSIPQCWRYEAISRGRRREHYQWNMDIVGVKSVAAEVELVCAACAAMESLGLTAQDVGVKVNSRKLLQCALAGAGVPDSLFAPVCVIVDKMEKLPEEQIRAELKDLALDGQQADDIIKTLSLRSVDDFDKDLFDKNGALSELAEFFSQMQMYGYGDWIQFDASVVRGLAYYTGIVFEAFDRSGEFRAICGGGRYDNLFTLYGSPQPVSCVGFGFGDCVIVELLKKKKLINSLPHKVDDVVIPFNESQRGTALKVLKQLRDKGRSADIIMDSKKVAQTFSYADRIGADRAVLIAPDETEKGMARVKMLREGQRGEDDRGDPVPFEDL
# ClpP1P2 = ClpP1P2 (Mycobacterium tuberculosis (strain ATCC 25618 / H37Rv), UniProt P9WPC3+P9WPC5); test: in vitro assay to detect presence of AMC directly proportional to the activity of ClpP1P2. GHDDI collaboration.
# Chain of ClpP1P2 (P9WPC5 whole entry): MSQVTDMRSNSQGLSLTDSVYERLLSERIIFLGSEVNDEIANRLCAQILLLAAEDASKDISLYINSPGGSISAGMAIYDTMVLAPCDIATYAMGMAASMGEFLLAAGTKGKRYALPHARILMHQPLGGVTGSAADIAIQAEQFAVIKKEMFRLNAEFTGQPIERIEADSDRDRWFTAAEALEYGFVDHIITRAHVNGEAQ
# Chain of ClpP1P2 (P9WPC3 whole entry): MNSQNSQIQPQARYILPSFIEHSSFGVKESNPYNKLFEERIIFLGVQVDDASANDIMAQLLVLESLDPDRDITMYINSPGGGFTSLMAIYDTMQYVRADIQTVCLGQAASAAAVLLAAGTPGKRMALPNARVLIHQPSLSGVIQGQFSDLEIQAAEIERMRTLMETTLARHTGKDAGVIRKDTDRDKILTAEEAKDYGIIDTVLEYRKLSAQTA
# [4] = target: T3, Ubiquitin-activating enzyme e1, putative (Leishmania donovani (strain BPK282A1), UniProt E9BSI1); test: Leishmania donovani Ubiquitin Activating Enzyme (LdE1)
# T3 sequence (E9BSI1 whole entry): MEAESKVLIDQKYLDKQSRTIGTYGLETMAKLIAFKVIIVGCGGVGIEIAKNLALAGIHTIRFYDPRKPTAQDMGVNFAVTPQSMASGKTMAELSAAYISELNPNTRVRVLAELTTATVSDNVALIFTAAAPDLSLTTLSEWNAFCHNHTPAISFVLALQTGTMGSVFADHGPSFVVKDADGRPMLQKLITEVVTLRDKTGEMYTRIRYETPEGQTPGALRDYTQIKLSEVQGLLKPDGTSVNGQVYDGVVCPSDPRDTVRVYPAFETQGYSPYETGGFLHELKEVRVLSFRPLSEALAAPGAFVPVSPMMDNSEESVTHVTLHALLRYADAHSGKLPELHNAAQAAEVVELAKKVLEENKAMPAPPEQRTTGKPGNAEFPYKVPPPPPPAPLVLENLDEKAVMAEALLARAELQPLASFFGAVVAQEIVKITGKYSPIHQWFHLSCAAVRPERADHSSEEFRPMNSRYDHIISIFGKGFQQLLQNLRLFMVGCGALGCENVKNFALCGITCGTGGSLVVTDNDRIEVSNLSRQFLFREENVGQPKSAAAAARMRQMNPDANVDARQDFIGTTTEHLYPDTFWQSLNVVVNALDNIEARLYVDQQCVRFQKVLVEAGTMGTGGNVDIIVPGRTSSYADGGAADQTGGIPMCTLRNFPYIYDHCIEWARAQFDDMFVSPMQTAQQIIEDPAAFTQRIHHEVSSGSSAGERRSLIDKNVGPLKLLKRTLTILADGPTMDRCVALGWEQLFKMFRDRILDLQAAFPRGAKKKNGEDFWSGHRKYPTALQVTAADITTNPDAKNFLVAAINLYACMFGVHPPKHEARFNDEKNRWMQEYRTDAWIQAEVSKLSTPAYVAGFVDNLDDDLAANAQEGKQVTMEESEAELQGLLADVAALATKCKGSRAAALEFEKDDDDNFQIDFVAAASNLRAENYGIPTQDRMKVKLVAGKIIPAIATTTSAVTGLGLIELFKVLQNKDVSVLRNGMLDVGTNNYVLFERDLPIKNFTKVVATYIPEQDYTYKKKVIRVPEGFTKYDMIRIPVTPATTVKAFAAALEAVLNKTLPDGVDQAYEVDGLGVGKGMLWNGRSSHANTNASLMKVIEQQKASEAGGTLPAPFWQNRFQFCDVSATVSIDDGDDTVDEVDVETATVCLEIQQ
# Shiga toxin 2 = target: T4, Shiga toxin 2 (Escherichia coli O157:H7, UniProt P09385+P09386); test: E. coli 0.157:H7 Shiga Toxin SOP - stx2 screening assay
# T4 sequence (P09385 whole entry): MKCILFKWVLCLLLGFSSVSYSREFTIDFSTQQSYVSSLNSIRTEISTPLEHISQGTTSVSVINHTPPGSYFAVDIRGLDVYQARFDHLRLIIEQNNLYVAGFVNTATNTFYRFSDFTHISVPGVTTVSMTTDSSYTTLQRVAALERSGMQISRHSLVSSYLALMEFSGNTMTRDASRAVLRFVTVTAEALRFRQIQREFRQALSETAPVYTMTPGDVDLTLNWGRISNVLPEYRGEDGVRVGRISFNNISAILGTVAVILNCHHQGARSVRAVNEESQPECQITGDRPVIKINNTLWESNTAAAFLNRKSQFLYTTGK
# T4 sequence (P09386 whole entry): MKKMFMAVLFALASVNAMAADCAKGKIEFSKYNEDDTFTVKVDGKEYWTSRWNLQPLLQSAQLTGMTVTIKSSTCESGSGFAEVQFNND
# [5] = target: T5, Arginase-2, mitochondrial (Homo sapiens, UniProt P78540); test: in vitro enzyme assay to detect the production of urea directly proportional to the activity of Arginase II
# T5 sequence (P78540 whole entry): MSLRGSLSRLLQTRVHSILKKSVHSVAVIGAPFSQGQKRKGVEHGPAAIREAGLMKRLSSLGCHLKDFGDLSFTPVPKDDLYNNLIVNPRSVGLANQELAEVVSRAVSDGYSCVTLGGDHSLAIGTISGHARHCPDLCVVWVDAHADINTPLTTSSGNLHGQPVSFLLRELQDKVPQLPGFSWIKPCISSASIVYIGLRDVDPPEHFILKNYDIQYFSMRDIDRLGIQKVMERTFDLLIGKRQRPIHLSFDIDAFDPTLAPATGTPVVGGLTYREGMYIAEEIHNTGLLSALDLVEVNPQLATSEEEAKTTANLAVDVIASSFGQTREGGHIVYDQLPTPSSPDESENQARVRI
# [6] = target: Chromo domain-containing protein 1 (Saccharomyces cerevisiae (strain ATCC 204508 / S288c) (Baker's yeast), UniProt P32657); test: ScCHD-1 Enzyme Inhibition Assay
# Chain of Chromo domain-containing protein 1 (P32657 whole entry, the tested form may be a part): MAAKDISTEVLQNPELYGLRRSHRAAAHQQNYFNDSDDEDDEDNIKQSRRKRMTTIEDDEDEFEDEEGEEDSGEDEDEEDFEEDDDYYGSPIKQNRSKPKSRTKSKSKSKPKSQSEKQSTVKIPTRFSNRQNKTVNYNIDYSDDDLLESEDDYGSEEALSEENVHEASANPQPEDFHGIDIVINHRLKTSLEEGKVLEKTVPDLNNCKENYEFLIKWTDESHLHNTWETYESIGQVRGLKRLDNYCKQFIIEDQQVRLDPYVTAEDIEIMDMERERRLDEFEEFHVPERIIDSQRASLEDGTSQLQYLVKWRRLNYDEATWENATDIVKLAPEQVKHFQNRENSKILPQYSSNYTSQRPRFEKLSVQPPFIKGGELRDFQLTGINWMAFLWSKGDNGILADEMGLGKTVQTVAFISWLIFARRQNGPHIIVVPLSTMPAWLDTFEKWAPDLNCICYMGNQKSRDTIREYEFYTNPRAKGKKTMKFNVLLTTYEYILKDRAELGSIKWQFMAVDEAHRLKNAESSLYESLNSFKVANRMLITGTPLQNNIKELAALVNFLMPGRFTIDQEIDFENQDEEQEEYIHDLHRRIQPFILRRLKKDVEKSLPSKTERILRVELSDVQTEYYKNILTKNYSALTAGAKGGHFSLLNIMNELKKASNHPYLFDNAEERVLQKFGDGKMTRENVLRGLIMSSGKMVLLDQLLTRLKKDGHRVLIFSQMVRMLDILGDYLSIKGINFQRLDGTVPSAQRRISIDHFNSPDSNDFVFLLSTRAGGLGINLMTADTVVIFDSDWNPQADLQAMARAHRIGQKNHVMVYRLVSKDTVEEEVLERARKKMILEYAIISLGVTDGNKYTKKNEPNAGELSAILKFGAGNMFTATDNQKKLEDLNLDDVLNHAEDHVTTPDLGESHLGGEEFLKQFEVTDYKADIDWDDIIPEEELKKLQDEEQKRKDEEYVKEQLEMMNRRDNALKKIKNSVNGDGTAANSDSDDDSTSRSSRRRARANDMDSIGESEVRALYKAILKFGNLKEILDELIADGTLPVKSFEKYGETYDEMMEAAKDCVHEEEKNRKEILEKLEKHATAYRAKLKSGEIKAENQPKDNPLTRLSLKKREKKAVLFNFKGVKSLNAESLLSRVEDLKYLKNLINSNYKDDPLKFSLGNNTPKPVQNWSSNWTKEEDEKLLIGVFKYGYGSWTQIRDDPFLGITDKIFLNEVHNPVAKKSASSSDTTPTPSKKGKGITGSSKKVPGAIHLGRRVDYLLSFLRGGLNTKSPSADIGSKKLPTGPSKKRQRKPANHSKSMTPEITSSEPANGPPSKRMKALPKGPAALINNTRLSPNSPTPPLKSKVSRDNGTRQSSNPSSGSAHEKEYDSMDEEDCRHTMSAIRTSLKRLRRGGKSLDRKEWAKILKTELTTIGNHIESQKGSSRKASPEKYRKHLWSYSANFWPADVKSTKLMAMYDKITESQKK
Structure (SMILES),IC50 (Histidine--tRNA ligase [1]),IC50 [2],IC50 (Lysine--tRNA ligase) [µM],IC50 (Histidine--tRNA ligase [3]),also measured
CNc1nc2c(s1)C(c1c(Cl)cccc1Cl)CC(=O)N2 (stereo not drawn),21.3 µM and 23 µM,89.4 µM and 43.2 µM,> 50.1,20.8 µM and 17.5 µM,
CNc1nc2c(s1)C(c1ccc(Cl)cc1Cl)CC(=O)N2 (stereo not drawn),10.3 µM and 10.6 µM,> 100 µM,> 50.1,4.56 µM and 3.65 µM,
COc1ccc(OC)c(C2CC(=O)Nc3nc(N4CCOCC4)sc32)c1 (stereo not drawn),3.5 µM and 4.23 µM,> 100 µM and 34.1 µM,> 50.1,0.373 µM and 0.317 µM,IC50 (ClpP1P2): > 100 µM; IC50 [4]: > 100 µM
COCCNC(=O)c1cn(C(C)(C)C)c2ncccc12,,> 100 µM,,,
CNc1nc2c(s1)C(c1ccccc1Cl)CC(=O)N2 (stereo not drawn),6.72 µM and 7.27 µM,> 100 µM,> 50.1,2.19 µM and 2.57 µM and 2.79 µM and 2.64 µM,
NCc1cn(-c2ccccc2C(=O)NCc2cccc(Cl)c2)cn1,,,,,IC50 (Shiga toxin 2): > 100 µM
CNc1nc2c(s1)C(c1ccc(F)cc1Cl)CC(=O)N2 (stereo not drawn),22.8 µM and 15.7 µM,> 100 µM,> 50.1,,
CCCc1c(C(=O)NC2CCCC2)nnn1-c1ccc(OC)cc1,,> 100 µM,,,
O=C(Cc1cccc(Cl)c1)N[C@@H]1CCNC[C@H]1O,,,,,IC50 (Shiga toxin 2): > 100 µM and 21.3 µM
Nc1nc2c(s1)C(c1c(F)cccc1Cl)CC(=O)N2 (stereo not drawn),9.65 µM and 7.68 µM,> 100 µM,> 50.1,3.22 µM and 4.42 µM,
CN(C)C(=O)[C@@H]1CCO[C@@H]2CCN(CCc3ccccc3)C[C@@H]21,,,> 50.1,,IC50 [5]: > 100 µM
O=C1CN(Cc2ccc(-c3ccccc3C(=O)O)cc2)CCN1,,,,,IC50 (Shiga toxin 2): > 100 µM
CNc1nc2c(s1)C(c1cccc(F)c1F)CC(=O)N2 (stereo not drawn),22.5 µM and 14.6 µM,93.5 µM and 33.1 µM,> 50.1,,IC50 (ClpP1P2): > 100 µM
CCNC(=O)Nc1ccc2c(ccn2CC(=O)N(CC)CC)c1,,> 100 µM,,,
Cc1ccc2c(ccn2CCC(=O)O)c1,,> 100 µM,,,
COc1ccc(C2CC(=O)Nc3nc(N4CCOCC4)sc32)cc1 (stereo not drawn),10.8 µM and 8.7 µM,37.3 µM and > 100 µM,> 50.1,1.79 µM and 2.45 µM and 2.49 µM and 2.07 µM,IC50 (ClpP1P2): > 100 µM; IC50 [4]: > 100 µM
CN(CCO)C(=O)c1coc(CN2CCN(c3ccccc3F)CC2)n1,,,,,IC50 [5]: > 100 µM; IC50 [6]: > 29.5 µM
COc1ccccc1C1CC(=O)Nc2nc(N3CCCCC3)sc21 (stereo not drawn),2.4 µM and 1.34 µM,22.1 µM and 29.4 µM,> 50.1,0.231 µM,IC50 (ClpP1P2): > 100 µM; IC50 [4]: 54.8 µM and 48.5 µM
CCc1c(C(=O)NCC2CCS(=O)(=O)C2)cnn1-c1ccc(C)cc1 (stereo not drawn),,> 100 µM,,,
